Measured values as given in BindingDB's records for patent US20240400586 (Haisco Pharmaceutical Group, 2024).
pIC50: −log10 of the molar value.

What follows are molecules tested against Poly [ADP-ribose] polymerase 1 (Homo sapiens, UniProt P09874) (assay: PARP1 Enzyme Activity Assay).
Poly [ADP-ribose] polymerase 1, sequence (P09874 whole entry): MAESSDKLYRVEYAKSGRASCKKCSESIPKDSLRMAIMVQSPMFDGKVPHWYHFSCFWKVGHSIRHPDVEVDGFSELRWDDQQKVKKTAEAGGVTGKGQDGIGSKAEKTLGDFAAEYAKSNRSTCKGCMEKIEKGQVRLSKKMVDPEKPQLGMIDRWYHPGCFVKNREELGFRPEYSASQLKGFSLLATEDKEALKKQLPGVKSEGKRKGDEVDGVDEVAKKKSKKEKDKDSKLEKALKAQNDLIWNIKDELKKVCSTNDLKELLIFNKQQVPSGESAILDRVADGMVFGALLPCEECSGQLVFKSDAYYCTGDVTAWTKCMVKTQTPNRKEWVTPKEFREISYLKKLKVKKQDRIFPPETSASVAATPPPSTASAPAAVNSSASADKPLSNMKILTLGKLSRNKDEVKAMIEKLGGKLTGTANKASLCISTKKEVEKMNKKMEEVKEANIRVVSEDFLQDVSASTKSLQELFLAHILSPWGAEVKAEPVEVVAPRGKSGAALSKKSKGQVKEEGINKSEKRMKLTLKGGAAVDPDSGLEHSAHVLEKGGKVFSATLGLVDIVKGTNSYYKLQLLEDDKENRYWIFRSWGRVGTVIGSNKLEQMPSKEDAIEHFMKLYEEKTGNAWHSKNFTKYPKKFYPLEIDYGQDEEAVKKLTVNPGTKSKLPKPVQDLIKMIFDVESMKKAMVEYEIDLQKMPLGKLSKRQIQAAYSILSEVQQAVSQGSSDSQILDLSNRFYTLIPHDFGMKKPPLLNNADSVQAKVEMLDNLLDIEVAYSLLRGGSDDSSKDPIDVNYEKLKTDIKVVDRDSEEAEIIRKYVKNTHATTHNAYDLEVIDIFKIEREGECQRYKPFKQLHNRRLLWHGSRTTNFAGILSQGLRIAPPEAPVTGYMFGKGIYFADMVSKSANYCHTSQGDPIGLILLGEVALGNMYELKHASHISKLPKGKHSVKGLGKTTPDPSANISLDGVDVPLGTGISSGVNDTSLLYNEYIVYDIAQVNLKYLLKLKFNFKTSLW
Method: The histone solution in the kit was diluted 5× with 1×PBS, and 25 μL of the diluted histone solution was added to a microwell plate and incubated overnight at 4° C. After the incubation, the plate was washed three times with PBST (0.05% Tween-20). 100 μL of the blocking solution was added to the microwell plate and incubated at 25° C. for 90 minutes. After the incubation, the plate was washed three times with PBST. 2.5 μL of compounds at different concentrations diluted in test buffer and 12.5 μL of substrate mixed solution (1.25 μL 10×PARP test buffer; 1.25 μL 10×PARP test mixed solution; 2.5 μL Activated DNA, 7.5 μL double-distilled water) were added to the microwell plate. The PARP1 enzyme was diluted to 2 ng/μL, 10 μL of the diluent was added to the microwell plate, and the reaction system was incubated at 25° C. for 60 minutes.After the incubation, the plate was washed three times with PBST. Streptavidin-HRP was diluted 50× with a blocking solution, and 25 μL of the diluent was added to the microwell plate and incubated at 25° C. for 30 minutes. After the incubation, the plate was washed three times with PBST. ELISA ECL substrate A and substrate B were mixed at a ratio of 1:1 (v/v), 50 μL of the mixture was added to the microwell plate, and the chemiluminescence value was read.

pIC50	Compound
9.25	CCC1=CC2N=CC(CN3CCN(c4ccc(C(=O)NC5CCC5)nc4)CC3)CC2NC1=O (stereo not drawn) [US20240400586, Compound 10]
9.27	CCC1CC2N=CC(CN3CCN(C4C=CC(C(=O)N[C@@H]5C[C@@H]5F)=NC4)CC3)=CC2NC1=O (stereo partly drawn) [US20240400586, Compound 11]
9.19	CCC1Cc2ncc(CN3CCN(C4CN5C=C(C)NC5C=N4)CC3)cc2NC1=O (stereo not drawn) [US20240400586, Compound 15]
